{"source": "patent US8226943B2", "about": "“Antibodies to notch receptors” (OncoMed Pharmaceuticals, Inc., priority 2008, dated 2012)", "key": {"[1]": {"system": "hDLL4-induced Notch2 signaling", "test": "Luciferase reporter assay, hDLL4-induced Notch2 signaling in Hela cells", "type": "cell-based, human", "conditions": "antibody titrated from 40 μg/ml", "experimental": "(§1) Luciferase reporter assays were used to assay the 59R1 antibody for its ability to block hDLL4-, hJAG1-, and hJAG2-induced Notch2 signaling.\nHela cells that stably overexpress human Notch2 were transiently transfected with firefly luciferase with a synthetic 8×CBS promoter (Ong et al., 2006, J. of Biological Chemistry, 281:5106-5119), pSPORT6 MAML-1, and Renilla luciferase-CMV as a transfection control. Cells were incubated with 100 ng of immobilized hDLL4 (R&D systems) with the indicated antibodies for 16 hours and then assayed using Dual-Glo (Promega) according to the manufacturer's instructions. Control antibody was at a concentration of 40 μg/ml. 59R1 IgG2 antibody was titrated, starting at 40 μg/ml, and then diluted by one-fourth. The gamma secretase inhibitor (GSI) dibenzazepine (DBZ) was used as a control at 1 μM."}, "[2]": {"system": "hJAG1-induced Notch2 signaling", "test": "Luciferase reporter assay, hJAG1-induced Notch2 signaling in Hela cells", "type": "cell-based, human", "conditions": "40 μg/ml", "experimental": "as §1\nHela cells that stably overexpress human Notch2 were transiently transfected with firefly luciferase with a synthetic 8×CBS promoter, pSPORT6 MAML-1, and Renilla luciferase-CMV as a transfection control. Cells were incubated with either 200 ng of immobilized hJAG1 (R&D systems) or hJAG2 (R&D systems) for 16 hours and then assayed using Dual-Glo (Promega) according to the manufacturer's instructions. 59R1 IgG2 antibody was at a concentration of 40 μg/ml. The gamma secretase inhibitor (GSI) dibenzazepine (DBZ) was used as a control at 1 μM."}, "[3]": {"system": "breast tumor xenograft line UM-T1", "test": "UM-T1 breast tumor xenograft growth", "type": "in vivo, NOD/SCID mice", "experimental": "The 59R1 IgG2 antibody was also tested in vivo in the breast tumor xenograft lines OMP-B34, OMP-B39, OMP-B44, PE13, and UM-T1, the pancreas tumor xenograft line OMP-PN8, and the colon tumor xenograft line OMP-C8. These tumor xenograft lines were established by adhering to procedures described in Al-Hajj et al., 2003, Proc. Natl. Acad. Sci. USA, 100:3983-3988. Female NOD/SCID immuno-compromised mice 7-10 weeks old were used for the establishment of the breast tumor xenografts and male NOD/SCID mice were used for the OMP-Pn8 and OMP-C8 tumor-models (Harlan, Indianapolis, Ind.). The 59R1 IgG2 antibody was also tested in vivo in a Colo-205 colon tumor xenograft model. Female immunodeficient bg/nu XID mice on a Swiss CD-1 background were used for the Colo-205 xenograft tumor model. In case of the breast cancer models, slow-releasing estrogen pellets (0.36 mg) had to be implanted. Mice were subcutaneously injected on the right flank with 50,000 (OMP-B34, OMP-B39, OMP-B44, PE13, and UM-T1) or 1×10^7 (Colo-205) viable cells, respectively, in a mixture of PBS (without magnesium or calcium) and Matrigel at a 1:1 ratio. […] Antibodies were administered weekly and tumors measured twice weekly. […] Tumor volume was calculated as described Al-Hajj et al. (2003). Data are expressed as the mean and the mean±S.E.M. Group means were compared using Student's two-tailed, unpaired t-test. […]"}, "stroma of Colo205 tumors": {"system": "stroma of Colo205 tumors", "test": "Microarray gene expression in stroma of treated xenograft tumors, Colo205", "type": "in vivo, mice", "conditions": "59R1 vs control", "experimental": "Gene expression levels in various xenograft tumor models treated with the 59R1 IgG2 antibody were analyzed by microarray analysis. Global gene expression profiling analysis was performed on Affymetrix HG-U133 plus 2.0 microarray (Affymetrix, Santa Clara, Calif.). Three independent RNA samples of xenograft whole tumors from the control and treatment groups were isolated and hybridized to the microarrays according to the manufacturer's instructions. Scanned array background adjustment and signal intensity normalization were performed with GCRMA algorithm in the open-source bioconductor software (www.bioconductor.org). The expression level of each gene was normalized by z-score transformation across the samples in the control (CTRL) and treatment (59R1) groups."}, "stroma of B44 tumors": {"system": "stroma of B44 tumors", "test": "Microarray gene expression in stroma of treated xenograft tumors, B44", "type": "in vivo, mice", "conditions": "59R1 vs control", "experimental": "Gene expression levels in various xenograft tumor models treated with the 59R1 IgG2 antibody were analyzed by microarray analysis. […] […] Scanned array background adjustment and signal intensity normalization were performed with GCRMA algorithm in the open-source bioconductor software (www.bioconductor.org). The expression level of each gene was normalized by z-score transformation across the samples in the control (CTRL) and treatment (59R1) groups."}, "[4]": {"system": "breast tumors T1, PE13, and B51", "test": "Gene Set Enrichment Analysis in treated breast tumors", "type": "in vivo, mice", "from_the_text": "Several pathways/gene sets that are regulated by antibody 59R1 in tumor cells were identified (Table 9) using Gene Set Enrichment Analysis (Mootha et al., 2003, Nature Genetics 34:267-73; Subramanian et al., 2005, Proc. Natl. Acad. Sci. USA 102:15545-50) in the breast tumors T1, PE13, and B51."}, "murine Notch2": {"system": "murine Notch2", "test": "DLL4-Fc induced receptor activation in transfected PC3 cells, murine Notch2", "type": "cell-based, mouse", "conditions": "immobilized DLL4-Fc", "experimental": "(§2) 59R5 was determined to have similar activity in blocking Notch2 and Notch3 signaling as 59R1. Receptor activation was determined in luciferase-based assays. PC3 tumor cells were transiently transfected with a human or mouse Notch receptor (human Notch2, murine Notch2, human Notch3, or murine Notch3) and […] inducible reporter construct. Transfected cells were incubated with different concentrations of 59R1 or 59R5 antibody in the presence of passively immobilized DLL4-Fc protein. Notch receptor activation was determined by measuring luciferase activity."}, "murine Notch3": {"system": "murine Notch3", "test": "DLL4-Fc induced receptor activation in transfected PC3 cells, murine Notch3", "type": "cell-based, mouse", "conditions": "immobilized DLL4-Fc", "experimental": "as §2"}}}
{"substance": "59R1: human IgG2 antibody binding Notch2 and Notch3; heavy and light chain SEQ ID NO:16 and 18; ATCC PTA-9547", "values": [{"measurement": "hDLL4-induced Notch2 reporter activity", "setting": "[1]", "result": "inhibit"}, {"measurement": "hJAG1-induced Notch2 reporter activity", "setting": "[2]", "result": "inhibit"}, {"measurement": "T1 breast tumor growth", "setting": "[3]; in the absence of estrogen treatment", "result": "ineffective"}, {"measurement": "T1 breast tumor growth", "setting": "[3]; in the presence of estrogen, 15 mg/kg once a week", "result": "effective at inhibiting tumor growth"}, {"measurement": "Fold 1417466_at (Rgs5)", "setting": "stroma of Colo205 tumors", "result": "−3.39"}, {"measurement": "Fold 1417714_x_at (Hba-al/Hba-a2)", "setting": "stroma of Colo205 tumors", "result": "−8.37"}, {"measurement": "Fold 1420872_at (Gucy1b3)", "setting": "stroma of Colo205 tumors", "result": "−1.94"}, {"measurement": "Fold 1420942_s_at (Rgs5)", "setting": "stroma of Colo205 tumors", "result": "−5.52"}, {"measurement": "Fold 1421964_at (Notch3)", "setting": "stroma of Colo205 tumors", "result": "−3.26"}, {"measurement": "Fold 1434141_at (Gucy1a3)", "setting": "stroma of Colo205 tumors", "result": "−2.49"}, {"measurement": "Fold 1451501_a_at (Ghr)", "setting": "stroma of Colo205 tumors", "result": "−1.83"}, {"measurement": "Fold 1452590_a_at (Plac9)", "setting": "stroma of Colo205 tumors", "result": "−1.61"}, {"measurement": "Fold 1416286_at (Rgs4)", "setting": "stroma of B44 tumors", "result": "−1.57"}, {"measurement": "Fold 1417466_at (Rgs5)", "setting": "stroma of B44 tumors", "result": "−2.22"}, {"measurement": "Fold 1417714_x_at (Hba-al/Hba-a2)", "setting": "stroma of B44 tumors", "result": "−2.56"}, {"measurement": "Fold 1418829_a_at (Eno2)", "setting": "stroma of B44 tumors", "result": 1.71}, {"measurement": "Fold 1419302_at (Heyl)", "setting": "stroma of B44 tumors", "result": "−1.12"}, {"measurement": "Fold 1420872_at (Gucy1b3)", "setting": "stroma of B44 tumors", "result": "−1.65"}, {"measurement": "Fold 1420941_at (Rgs5)", "setting": "stroma of B44 tumors", "result": "−2.09"}, {"measurement": "Fold 1420942_s_at (Rgs5)", "setting": "stroma of B44 tumors", "result": "−2.43"}, {"measurement": "Fold 1421964_at (Notch3)", "setting": "stroma of B44 tumors", "result": "−2.03"}, {"measurement": "Fold 1422789_at (Aldh1a2)", "setting": "stroma of B44 tumors", "result": "−4.92"}, {"measurement": "Fold 1428361_x_at (Hba-al/Hba-a2)", "setting": "stroma of B44 tumors", "result": "−2.42"}, {"measurement": "Fold 1434141_at (Gucy1a3)", "setting": "stroma of B44 tumors", "result": "−1.74"}, {"measurement": "Fold 1449280_at (Esm1)", "setting": "stroma of B44 tumors", "result": 1.55}, {"measurement": "Fold 1449632_s_at (Fkbp10)", "setting": "stroma of B44 tumors", "result": "−1.57"}, {"measurement": "Fold 1451501_a_at (Ghr)", "setting": "stroma of B44 tumors", "result": "−2.24"}, {"measurement": "Fold 1452590_a_at (Plac9)", "setting": "stroma of B44 tumors", "result": "−1.64"}, {"measurement": "Fold 1459713_s_at (Tmem16a)", "setting": "stroma of B44 tumors", "result": "−1.70"}, {"measurement": "cell cycle gene pathways, myc-activating genes and several stem cell gene sets", "setting": "[4]", "result": "down-regulated"}]}
{"substance": "59R5: human antibody that specifically binds human Notch 2 and human Notch 3; heavy and light chain SEQ ID NO:49 and 18; ATCC PTA-10170", "values": [{"measurement": "ligand-induced activation of murine Notch2 receptor signaling", "setting": "murine Notch2", "result": "blocked"}, {"measurement": "ligand-induced activation of murine Notch3 receptor signaling", "setting": "murine Notch3", "result": "blocked"}]}
